Assay: recombinant barcode read abundance after kanamycin selection (control-corrected) (log10(CPM+1)); higher = more efficient recombination; sequences stand for … in AGTGCAGAGAAAATCGGCCAGTTTTCTCTGCCTGCAGTCCGCATGCCGT…AGATTTATGCAGCGGACTGCCTTTCTCCCAAAGTGATAAACCGGACAGTATCATGGACCGGTTTTCCCGGTAATCCGTATTTGCAAGGTTGGTTTCACT; site = the 11-nt target
Protocol: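 Pooled E. coli target-specificity screen for the IS621 bridge recombinase. Each library plasmid pairs an 11-nt target (CT core) with a bridge RNA whose target-binding loop (9-nt LTG + 4-nt RTG) is reprogrammed; the rest of the 177-nt WT IS621 bridge RNA scaffold is fixed. The plasmid is co-electroporated with a WT donor plasmid; recombinase is induced with 0.1 mM IPTG and recombinants are selected on kanamycin. Recombinant barcodes are sequenced, converted to CPM, averaged over two biological replicates and corrected by the unselected control CPM. Molecule = full bridge RNA written as DNA: LTG = specificity nt 1-9, RTG = reverse complement of specificity nt 8-11, in the WT scaffold.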
With “AATTGTCCTTGGGTTCTAACCTGTTGCGT (site AATTGTCCTAC)” the “recombinant barcode read abundance (log10)” value was 1.17. For “AATTGTCCTTGGGTTCTAACCTGTTGCGT (site AATTGTCCTAG)”, the “recombinant barcode read abundance (log10)” value was 0.154. In the case of “AATTGTCCTTGGGTTCTAACCTGTTGCGT (site AATTGTCCTAT)”, the “recombinant barcode read abundance (log10)” value is reported as 0.0639. For “ACAAACCCTTGGGTTCTAACCTGTTGCTA (site ACAAACCCTTA)”, the “recombinant barcode read abundance (log10)” value was 0.672. For “ACAAACCCTTGGGTTCTAACCTGTTGCTA (site CTGGCAGCTAG)”, the “recombinant barcode read abundance (log10)” value was 0.85. With “ACAAATCCTTGGGTTCTAACCTGTTGCCT (site ACAAAACCTAG)” the “recombinant barcode read abundance (log10)” value was 0.116. For “ACAAATCCTTGGGTTCTAACCTGTTGCCT (site ACAAACCCTAG)”, the “recombinant barcode read abundance (log10)” value was 0.292. In the case of “ACAAATCCTTGGGTTCTAACCTGTTGCCT (site ACAAAGCCTAG)”, the “recombinant barcode read abundance (log10)” value is reported as 0.0186. In the case of “ACAAATCCTTGGGTTCTAACCTGTTGCCT (site ACAAATCCTAG)”, the “recombinant barcode read abundance (log10)” value is reported as 0.591. In the case of “ACAACGACTTGGGTTCTAACCTGTTGCCT (site ACAACCACTAG)”, the “recombinant barcode read abundance (log10)” value is reported as 0.0471. With “ACAACGACTTGGGTTCTAACCTGTTGCCT (site ACAACGACTAG)” the “recombinant barcode read abundance (log10)” value was 0.689. In the case of “ACAAGGCCTTGGGTTCTAACCTGTTGCAT (site ACAAGGCCTAT)”, the “recombinant barcode read abundance (log10)” value is reported as 1.38. For “ACAAGGCCTTGGGTTCTAACCTGTTGCAT (site TGCCCCTCTCG)”, the “recombinant barcode read abundance (log10)” value was 0.263. In the case of “ACAAGGGCTTGGGTTCTAACCTGTTGCTG (site ACAAGGGCTCA)”, the “recombinant barcode read abundance (log10)” value is reported as 2.06. With “ACAAGGGCTTGGGTTCTAACCTGTTGCTG (site GAGGCTACTAT)” the “recombinant barcode read abundance (log10)” value was 0.531. In the case of “ACAATATCTTGGGTTCTAACCTGTTGCCT (site ACAATATCTAG)”, the “recombinant barcode read abundance (log10)” value is reported as 0.774. With “ACAATATCTTGGGTTCTAACCTGTTGCCT (site ACATGATCTAG)” the “recombinant barcode read abundance (log10)” value was 0.242. With “ACACATACTTGGGTTCTAACCTGTTGCCT (site ACACATACTAG)” the “recombinant barcode read abundance (log10)” value was 0.302. With “ACACATACTTGGGTTCTAACCTGTTGCCT (site ACGCATACTAG)” the “recombinant barcode read abundance (log10)” value was 0.104. With “ACACCCTCTTGGGTTCTAACCTGTTGCAG (site ACACCCTCTCT)” the “recombinant barcode read abundance (log10)” value was 1.79. With “ACACCCTCTTGGGTTCTAACCTGTTGCAG (site GGTATAACTTG)” the “recombinant barcode read abundance (log10)” value was 0.271. For “ACACCGTCTTGGGTTCTAACCTGTTGCCT (site ACACCGTCTAG)”, the “recombinant barcode read abundance (log10)” value was 2.12. With “ACACCGTCTTGGGTTCTAACCTGTTGCCT (site AGACCTTCTAG)” the “recombinant barcode read abundance (log10)” value was 0. In the case of “ACACGACCTTGGGTTCTAACCTGTTGCGG (site ACACGACCTCC)”, the “recombinant barcode read abundance (log10)” value is reported as 2.48. For “ACACGACCTTGGGTTCTAACCTGTTGCGG (site ACAGGAGCTCC)”, the “recombinant barcode read abundance (log10)” value was 0. In the case of “ACAGAGACTTGGGTTCTAACCTGTTGCAG (site ACAGAGACTCT)”, the “recombinant barcode read abundance (log10)” value is reported as 1.35. For “ACAGAGACTTGGGTTCTAACCTGTTGCAG (site ACGTAGACTCT)”, the “recombinant barcode read abundance (log10)” value was 0.113. For “ACAGCTACTTGGGTTCTAACCTGTTGCCT (site ACAGCTACTAG)”, the “recombinant barcode read abundance (log10)” value was 1.84. In the case of “ACAGCTACTTGGGTTCTAACCTGTTGCCT (site ACAGCTTCTAG)”, the “recombinant barcode read abundance (log10)” value is reported as 0.33. With “ACAGCTACTTGGGTTCTAACCTGTTGCTT (site ACAGCTACTAA)” the “recombinant barcode read abundance (log10)” value was 0.699. In the case of “ACAGCTACTTGGGTTCTAACCTGTTGCTT (site GCAGCTACTCA)”, the “recombinant barcode read abundance (log10)” value is reported as 0.0436. In the case of “ACAGGGTCTTGGGTTCTAACCTGTTGCCT (site AAAGGGTCTAG)”, the “recombinant barcode read abundance (log10)” value is reported as 0. In the case of “ACAGGGTCTTGGGTTCTAACCTGTTGCCT (site ACAGGGTCTAG)”, the “recombinant barcode read abundance (log10)” value is reported as 2.32. With “ACAGGGTCTTGGGTTCTAACCTGTTGCCT (site AGAGGGTCTAG)” the “recombinant barcode read abundance (log10)” value was 0.193. For “ACAGGGTCTTGGGTTCTAACCTGTTGCCT (site ATAGGGTCTAG)”, the “recombinant barcode read abundance (log10)” value was 0.355. In the case of “ACAGGTCCTTGGGTTCTAACCTGTTGCCG (site ACAGGTCCTCG)”, the “recombinant barcode read abundance (log10)” value is reported as 2.34. With “ACAGGTCCTTGGGTTCTAACCTGTTGCCG (site GTCTAATCTAT)” the “recombinant barcode read abundance (log10)” value was 0.12. In the case of “ACAGTACCTTGGGTTCTAACCTGTTGCTG (site ACAGTACCTCA)”, the “recombinant barcode read abundance (log10)” value is reported as 1.87. With “ACAGTACCTTGGGTTCTAACCTGTTGCTG (site TAGCCCTCTTT)” the “recombinant barcode read abundance (log10)” value was 0.204. In the case of “ACAGTTACTTGGGTTCTAACCTGTTGCAT (site ACAGTTACTAT)”, the “recombinant barcode read abundance (log10)” value is reported as 1.29. In the case of “ACAGTTACTTGGGTTCTAACCTGTTGCAT (site TTGTGAGCTTG)”, the “recombinant barcode read abundance (log10)” value is reported as 0.737. In the case of “ACATACCCTTGGGTTCTAACCTGTTGCTG (site ACATACCCTCA)”, the “recombinant barcode read abundance (log10)” value is reported as 1.81. With “ACATACCCTTGGGTTCTAACCTGTTGCTG (site CTTCGAACTAT)” the “recombinant barcode read abundance (log10)” value was 0.142. In the case of “ACATGGACTTGGGTTCTAACCTGTTGCAT (site ACATGAACTAT)”, the “recombinant barcode read abundance (log10)” value is reported as 0.753. For “ACATGGACTTGGGTTCTAACCTGTTGCAT (site ACATGCACTAT)”, the “recombinant barcode read abundance (log10)” value was 0.115. With “ACATGGACTTGGGTTCTAACCTGTTGCAT (site ACATGGACTAT)” the “recombinant barcode read abundance (log10)” value was 2.72. In the case of “ACATGGACTTGGGTTCTAACCTGTTGCAT (site ACATGTACTAT)”, the “recombinant barcode read abundance (log10)” value is reported as 0.157. For “ACATGTACTTGGGTTCTAACCTGTTGCAG (site ACATGTACTCT)”, the “recombinant barcode read abundance (log10)” value was 1.28. With “ACATGTACTTGGGTTCTAACCTGTTGCAG (site AGATGTACTCA)” the “recombinant barcode read abundance (log10)” value was 0.0852. In the case of “ACATGTACTTGGGTTCTAACCTGTTGCAT (site ACATGAACTAT)”, the “recombinant barcode read abundance (log10)” value is reported as 0.0356. In the case of “ACATGTACTTGGGTTCTAACCTGTTGCAT (site ACATGCACTAT)”, the “recombinant barcode read abundance (log10)” value is reported as 0. For “ACATGTACTTGGGTTCTAACCTGTTGCAT (site ACATGGACTAT)”, the “recombinant barcode read abundance (log10)” value was 0.121. With “ACATGTACTTGGGTTCTAACCTGTTGCAT (site ACATGTACTAT)” the “recombinant barcode read abundance (log10)” value was 0.888. For “ACATGTACTTGGGTTCTAACCTGTTGCCG (site ACATGTACTCA)”, the “recombinant barcode read abundance (log10)” value was 0.0415. In the case of “ACATGTACTTGGGTTCTAACCTGTTGCCG (site ACATGTACTCG)”, the “recombinant barcode read abundance (log10)” value is reported as 0.158. For “ACATGTACTTGGGTTCTAACCTGTTGCTG (site ACATGTACTCA)”, the “recombinant barcode read abundance (log10)” value was 1.1. With “ACATGTACTTGGGTTCTAACCTGTTGCTG (site ACATGTACTCG)” the “recombinant barcode read abundance (log10)” value was 0.182. With “ACATTGCCTTGGGTTCTAACCTGTTGCCT (site ACATTGCCTAG)” the “recombinant barcode read abundance (log10)” value was 0.44. With “ACATTGCCTTGGGTTCTAACCTGTTGCCT (site ACCTTGCCTAG)” the “recombinant barcode read abundance (log10)” value was 0.0938. For “ACATTGCCTTGGGTTCTAACCTGTTGCCT (site ACGTTGCCTAG)”, the “recombinant barcode read abundance (log10)” value was 0.732. In the case of “ACATTGCCTTGGGTTCTAACCTGTTGCCT (site ACTTTGCCTAG)”, the “recombinant barcode read abundance (log10)” value is reported as 0. In the case of “ACCAAGTCTTGGGTTCTAACCTGTTGCGC (site ACCAAGTCTAC)”, the “recombinant barcode read abundance (log10)” value is reported as 0.251. For “ACCAAGTCTTGGGTTCTAACCTGTTGCGC (site ACCAAGTCTGC)”, the “recombinant barcode read abundance (log10)” value was 1.74. For “ACCACAGCTTGGGTTCTAACCTGTTGCCT (site ACCAAAGCTTG)”, the “recombinant barcode read abundance (log10)” value was 0.16. With “ACCACAGCTTGGGTTCTAACCTGTTGCCT (site ACCACAGCTAG)” the “recombinant barcode read abundance (log10)” value was 0.283. In the case of “ACCAGATCTTGGGTTCTAACCTGTTGCCT (site ACCAGATCTAG)”, the “recombinant barcode read abundance (log10)” value is reported as 0.846. In the case of “ACCAGATCTTGGGTTCTAACCTGTTGCCT (site TCCAGCTCTAG)”, the “recombinant barcode read abundance (log10)” value is reported as 0.152. In the case of “ACCCAGCCTTGGGTTCTAACCTGTTGCAG (site ACCCAGCCTCT)”, the “recombinant barcode read abundance (log10)” value is reported as 2.27. With “ACCCAGCCTTGGGTTCTAACCTGTTGCAG (site TGAGTCTCTTG)” the “recombinant barcode read abundance (log10)” value was 0.0203. In the case of “ACCCAGCCTTGGGTTCTAACCTGTTGCAT (site ACCCAGCCTAA)”, the “recombinant barcode read abundance (log10)” value is reported as 1.4. In the case of “ACCCAGCCTTGGGTTCTAACCTGTTGCAT (site ACCCAGCCTAC)”, the “recombinant barcode read abundance (log10)” value is reported as 0.265. For “ACCCAGCCTTGGGTTCTAACCTGTTGCAT (site ACCCAGCCTAG)”, the “recombinant barcode read abundance (log10)” value was 0.68. For “ACCCAGCCTTGGGTTCTAACCTGTTGCAT (site ACCCAGCCTAT)”, the “recombinant barcode read abundance (log10)” value was 2.45. In the case of “ACCCAGCCTTGGGTTCTAACCTGTTGCTT (site ACCCAGCCTAA)”, the “recombinant barcode read abundance (log10)” value is reported as 1.77. For “ACCCAGCCTTGGGTTCTAACCTGTTGCTT (site ACCCAGCCTAC)”, the “recombinant barcode read abundance (log10)” value was 0.278. With “ACCCAGCCTTGGGTTCTAACCTGTTGCTT (site ACCCAGCCTAG)” the “recombinant barcode read abundance (log10)” value was 0.758. For “ACCCAGCCTTGGGTTCTAACCTGTTGCTT (site ACCCAGCCTAT)”, the “recombinant barcode read abundance (log10)” value was 1.41. For “ACCCGTACTTGGGTTCTAACCTGTTGCCT (site ACCAGTACTAG)”, the “recombinant barcode read abundance (log10)” value was 0.063. In the case of “ACCCGTACTTGGGTTCTAACCTGTTGCCT (site ACCCGTACTAG)”, the “recombinant barcode read abundance (log10)” value is reported as 1.26. For “ACCCGTACTTGGGTTCTAACCTGTTGCCT (site ACCGGTACTAG)”, the “recombinant barcode read abundance (log10)” value was 0.0386. For “ACCCGTACTTGGGTTCTAACCTGTTGCCT (site ACCTGTACTAG)”, the “recombinant barcode read abundance (log10)” value was 0.485. For “ACCCGTCCTTGGGTTCTAACCTGTTGCAG (site ACCCGTCCTCT)”, the “recombinant barcode read abundance (log10)” value was 2.67.

— the supplement of paper PMC11208160
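Note: IS621 recombinase and bridge RNA in Escherichia coli cells.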
